Broadly, the IC50 is the concentration that gives 50% inhibition. A higher IC50 goes with weaker potency in that assay.

Structures are written as SMILES.

This test has as its target T1, mTOR kinase (Homo sapiens, UniProt P42345).
T1 construct: purchased Invitrogen Corp. (Madison, Wis., USA)
The test is described as follows: Z'-LYTE biochemical assay for mTOR (Invitrogen). The method, then: The Z′-LYTE® biochemical assay for mTOR
The mTOR kinase activity was assessed using the Z′-LYTE® biochemical assay of Invitrogen Corp. (Madison, Wis., USA).

T1 sequence (P42345 1360-2549 limits assumed): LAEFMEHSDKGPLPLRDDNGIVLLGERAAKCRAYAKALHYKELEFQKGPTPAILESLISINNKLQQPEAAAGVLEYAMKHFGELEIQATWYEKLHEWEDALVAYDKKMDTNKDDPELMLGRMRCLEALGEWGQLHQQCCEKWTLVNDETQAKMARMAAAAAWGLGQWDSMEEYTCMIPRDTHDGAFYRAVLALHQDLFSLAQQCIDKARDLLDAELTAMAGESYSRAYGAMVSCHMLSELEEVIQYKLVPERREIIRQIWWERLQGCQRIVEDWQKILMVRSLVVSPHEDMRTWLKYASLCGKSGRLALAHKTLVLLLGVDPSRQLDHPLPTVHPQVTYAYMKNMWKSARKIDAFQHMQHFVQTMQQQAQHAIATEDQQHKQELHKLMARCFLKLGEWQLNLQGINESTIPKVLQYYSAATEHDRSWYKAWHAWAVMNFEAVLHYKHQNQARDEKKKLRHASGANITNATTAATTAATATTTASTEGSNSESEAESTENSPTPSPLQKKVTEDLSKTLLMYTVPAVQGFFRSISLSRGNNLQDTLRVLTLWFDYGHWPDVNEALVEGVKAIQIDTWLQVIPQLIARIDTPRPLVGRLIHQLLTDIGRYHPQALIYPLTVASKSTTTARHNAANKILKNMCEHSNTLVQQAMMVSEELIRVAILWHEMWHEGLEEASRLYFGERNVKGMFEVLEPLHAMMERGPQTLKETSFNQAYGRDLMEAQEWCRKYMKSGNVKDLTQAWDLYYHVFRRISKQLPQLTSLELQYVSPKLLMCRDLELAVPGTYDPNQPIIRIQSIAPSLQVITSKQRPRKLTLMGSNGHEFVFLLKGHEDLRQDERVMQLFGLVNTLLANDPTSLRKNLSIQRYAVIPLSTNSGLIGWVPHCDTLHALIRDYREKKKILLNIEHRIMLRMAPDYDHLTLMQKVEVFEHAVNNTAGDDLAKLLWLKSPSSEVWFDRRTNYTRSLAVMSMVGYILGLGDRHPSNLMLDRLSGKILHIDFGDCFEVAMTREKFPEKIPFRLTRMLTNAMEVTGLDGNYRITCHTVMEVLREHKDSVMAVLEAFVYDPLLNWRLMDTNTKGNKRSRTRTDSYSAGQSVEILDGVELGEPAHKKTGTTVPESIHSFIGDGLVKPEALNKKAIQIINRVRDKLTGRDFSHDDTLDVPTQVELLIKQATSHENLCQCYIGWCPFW

Regarding `Nc1ncc(-c2nc(N3CCOCC3)nc3c2cnn3C2CCOCC2)cn1` [Example 1, 5-(1-(2H-3,4,5,6-tetrahydropyran-4-yl)-6-morpholin-4-ylpyrazolo[4,5-e]pyrimidin-4-yl)pyrimidine-2-ylamine], the IC50 is < 1 µM. For `CN1CCN(C(=O)N2CCC(n3ncc4c(-c5cnc(N)nc5)nc(N5CCOCC5)nc43)CC2)CC1` [Example 4, 4-[4-(2-aminopyrimidin-5-yl)-6-morpholin-4-ylpyrazolo[5,4-d]pyrimidinyl]piperidyl 4-methylpiperazinyl ketone], the IC50 was < 1 µM.
